# Measurements from patent publication US10624875B2, “Methods and compositions for treating schizophrenia” (The Johns Hopkins University, priority 2012, dated 2020).
# Values joined by “and” are separate entries in the source; they are usually repeats but may differ in a detail not shown here. Identical values can stand only once.
# How the values were obtained:
# aged-impaired (AI) rats = assay: eight-arm Radial Arm Maze (RAM) task with one-hour delay, spatial memory retention; format: in vivo, rat
# Method: The effects of levetiracetam on the spatial memory retention of aged-impaired (AI) rats were assessed in a Radial Arm Maze (RAM) behavioral task using vehicle control and five different dosage levels of levetiracetam (1.25 mg/kg/day, 2.5 mg/kg/day, 5 mg/kg/day, 10 mg/kg/day and 20 mg/kg/day). RAM behavioral tasks were preformed on ten AI rats. All six treatment conditions were tested on all ten rats, as described above for the MWM test. The RAM apparatus used consisted of eight equidistantly-spaced arms. An elevated maze arm (7 cm width×75 cm length) projected from each facet of an octagonal center platform (30 cm diameter, 51.5 cm height). Clear side walls on the arms were 10 cm high and were angled at 65° to form a trough. A food well (4 cm diameter, 2 cm deep) was located at the distal end of each arm. Froot Loops™ (Kellogg Company) were used as rewards. Blocks constructed of Plexiglas™ (30 cm height×12 cm width) could be positioned to prevent entry to any arm. Numerous extra maze cues surrounding the apparatus were also provided. The AI rats were initially subjected to a pre-training test (Chappell et al. Neuropharmacology 37: 481-487, 1998). The pre-training test consisted of a habituation phase (4 days), a training phase on the standard win-shift task (18 days) and another training phase (14 days) in which a brief delay was imposed between presentation of a subset of arms designated by the experimenter (e.g., 5 arms available and 3 arms blocked) and completion of the eight-arm win-shift task (i.e., with all eight arms available). In the habituation phase, rats were familiarized to the maze for an 8-minute session on four consecutive days. In each of these sessions food rewards were scattered on the RAM, initially on the center platform and arms and then progressively confined to the arms. After this habituation phase, a standard training protocol was used, in which a food pellet was located at the end of each arm. Rats received one trial each day for 18 days. Each daily trial terminated when all eight food pellets had been obtained or when either 16 choices were made or 15 minutes had elapsed. After completion of this training phase, a second training phase was carried out in which the memory demand was increased by imposing a brief delay during the trial. At the beginning of each trial, three arms of the eight-arm maze were blocked. Rats were allowed to obtain food on the five arms to which access was permitted during this initial ‘information phase’ of the trial. Rats were then removed from the maze for 60 seconds, during which time the barriers on the maze were removed, thus allowing access to all eight arms. Rats were then placed back onto the center platform and allowed to obtain the remaining food rewards during this ‘retention test’ phase of the trial. The identity and configuration of the blocked arms varied across trials. The number of “errors” the AI rats made during the retention test phase was tracked. An error occurred in the trial if the rats entered an arm from which food had already been retrieved in the pre-delay component of the trial, or if it re-visited an arm in the post-delay session that had already been visited. After completion of the pre-training test, rats were subjected to trials with more extended delay intervals, i.e., a one-hour delay, between the information phase (presentation with some blocked arms) and the retention test (presentation of all arms). […]
# DG/CA3 = assay: fMRI activity during explicit 3-alternative forced choice task, DG/CA3; format: in vivo, human; conditions: aMCI subjects, 125 mg twice a day for two weeks, versus placebo
# Method: A within-subjects trial of 8 weeks duration, involving 17 amnestic MCI (aMCI) subjects and 17 age-matched controls with a low dose treatment of levetiracetam is conducted. During the course of the study, each aMCI subject receives both drug and placebo treatments separately in two periods of two weeks each, with the order of treatments among different aMCI subjects counterbalanced (see FIG. 7). Age-matched control subjects treated with placebo serve as a further control. Cognitive testing and fMRI imaging data are obtained from the subjects after each two week period of drug/placebo treatment. As described above, the drug treatment period is the two weeks preceding Visit 1 or 2 (with the two week period preceding the other Visit being the placebo phase). […] Imaging data are obtained through high-resolution methods developed in the Stark laboratory. Data are collected on a Phillips 3 Tesla scanner (Eindhoven, The Netherlands) equipped with an 8-channel SENSE (Sensitivity Encoding) head coil, located at the F.M. Kirby Research Center for Functional Brain Imaging at the Kennedy Krieger Institute (Baltimore, Md.). […] Group data are analyzed using a two-way Analysis of Variance (ANOVA) with trial types and group as fixed factors, and subject as a random factor nested within group. […]
# [1] = drug on its own (levetiracetam i.p., valproate subcutaneous)
structure (smiles),measurement,setting,value
"CC[C@@H](C(N)=O)N1CCCC1=O [levetiracetam, (2S)-2-(2-oxopyrrolidin-1-yl) butanamide]",performance in the radial maze task,aged-impaired (AI) rats; 20 mg/kg,fails to improve the performance
same,dose effective in reducing the number of errors,aged-impaired (AI) rats; [1],5 to 10 mg/kg
same,dose not effective in reducing the number of errors,aged-impaired (AI) rats; [1],1.25 mg/kg and 2.5 mg/kg
same,DG/CA3 activity during lure stimuli correctly identified as similar,DG/CA3,reduces DG/CA3 hyper-activity
